# Test results reported in publication PMC8571378, “Reversion analysis reveals the in vivo immunogenicity of a poorly MHC I-binding cancer neoepitope” (Nature Communications, 2021).
# No end group written: not given here.
# Legend:
# splenic CD8 T cells = test: ELIspot for interferon γ of splenic CD8 T cells from immunized mice; assay type: cell-based, BALB/c mice; settings: spleens seven days after second immunization; in vitro stimulation with immunizing 18-mer, 10 µM
# From the text: BALB/c mice were immunized with 18-mer peptides containing Ccdc85c^MUT as well as Ccdc85c^WT as described in Methods. Spleens were harvested seven days after the second immunization and splenic CD8 T cells tested by ELIspot for interferon γ production in response to stimulation in vitro with the peptides used for immunization. […] Since the CD8 response detected in vitro was so modest, CD8 response as detected in vivo in the tumor microenvironment became our focus.
# Supplementary Fig. 3. CD8 response to Ccdc85cMUT and Ccdc85cWT peptides. BALB/c mice were immunized twice at a weekly interval with 18-mer peptides containing Ccdc85cWT (left) or Ccdc85cMUT (right) as described in Methods. Spleens were harvested seven days after the second immunization and CD8 T cells stimulated in vitro with the peptides (10 µM concentration) used for immunization, as indicated. CD8 cells were analyzed for release of interferon g. Each dot represents a single mouse. The P values were calculated using two tailed t-test. Data are presented as mean values +/- SD. […]
# Meth A = test: Tumor rejection (immunization-challenge) assay; tumor growth AUC and tumor rejection score (TRS); assay type: in vivo, BALB/cJ mice; settings: BALB/cJ mice immunized twice, CTLA4 blockade
# Protocol: Each line represents tumor growth in a single mouse (n = 5 mice per group). AUC for each group is plotted in the panel on the right. Data are presented as mean ± SD. P values were calculated using 1-way ANOVA test adjusted for multiple comparisons (Tukey’s multiple comparison test). c Several truncated versions of the 18-mer Ccdc85c^MUT peptide were tested in tumor rejection assay. BALB/cJ mice were immunized and tumor challenged. Each line represents tumor growth in a single mouse. Although mice were immunized with individual peptides, the data for multiple peptides are grouped into one with the composition of the peptides shown on the right. The tumor rejection data for individual peptides are shown in Supplementary Fig. 1. Tumor rejection score (TRS) for each neoepitope is shown in the yellow box, where five represents a complete tumor protection and zero means no tumor rejection. d On the left panel, total Area Under the Curve (AUC) scores for each group in B are plotted. […] Error bars represent standard deviation (SD). […] P values were calculated using 1-way ANOVA test adjusted for multiple comparisons. […] Matched peak lists for the “heavy” and “light” ions were extracted and monitored, while only single charge y ions were plotted. See Methods for details. f Predicted (by NetMHC4.0) and measured IC50 values of the binding of candidate precise neoepitopes of Ccdc85c^MUT to K^d are shown. […] The affinities of the MS/TRS predicted neoepitopes were also measured for D^d and L^d; measured affinities were below the level of detection.
# The mutation is heterozygous and the un-mutated as well as the mutated reads are detected in the transcripts. […] All mice were challenged with the Meth A cells, and tumor rejection was monitored (Fig. 1b upper panel). […]
# Area under the curve (AUC) is used as a tool to measure tumor growth. Briefly, AUC was calculated by selecting “Curves & Regression” and then “Area under curve” from the “analyze” tool, using the Prism 5.0 (GraphPad). […]
# H2-A^d = test: MHC II cell-surface density assay, H2-A^d; assay type: cell-based, mouse; settings: NIH3T3 cells, flow cytometry 48 h after transduction; peptides adjusted to 12-mer with N-terminal glycines; MUT vs WT counterpart
# From the text: (§1) In order to determine if any peptides within Ccdc85c^MUT could be presented by MHC II molecules, we analyzed the interaction of H2-A^d and H2-E^d with […], […] and IRPFETKVK as well as their wild type counterparts, using a cell-surface density assay. In this assay, β-chains of H2-Ab1^d or H2-Eb1^d are expressed in fusion with the peptide of interest and the amount of cell-surface MHC II, as a measure of intrinsic stability of MHC II, is quantified in engineered conditions. The measured cell-surface MHC density correlates well with the actual affinity of the peptide to MHC II. […] This was observed when CD4 depletion was carried out during the priming phase alone (as in Supplementary Fig. 2b), or throughout the entire experiment including the effector phase (i.e. post tumor challenge).
# (§2) MHC II-peptide binding analysis was conducted by cell-surface density assay[18] with modifications. […] Cell-surface expression of H2-A^d or H2-E^d and cytoplasmic expression of GFP in GFP^+ MHC^+ cells were measured by flow cytometry 48 h after the transduction, using the following antibodies: H2-A^d, anti-mouse I-A^d mAb with the dilution of 1:10, 20 μl per sample (39-10-8, BioLegend) or mouse IgG3 isotype control with the dilution of 1:100, 10 μl per sample (m078-3, clone 6A3, Medical & Biological Laboratories Co. Ltd.) and goat anti-mouse IgG3-PE with the dilution of 1:20, 15 μl per sample (sc-3767, Santa Cruz Biotechnology, Inc.); H2-E, anti-I-E^d mAb with the dilution of 1:40, 10 μl per sample (115002, 14-4-4 S, Thermo Fisher) or mouse IgG2a isotype control with the dilution of 1:10, 10 μl per sample (m076-3, clone 6H3, Medical & Biological Laboratories Co. Ltd.) and goat F(ab’)2 Anti-mouse Ig-PE with the dilution of 1:20, 20 μl per sample (1012-09, Southern Biotechnology Associates Inc.). The ratio of MHC MFI to GFP MFI (MHC/GFP) for each MHC II-peptide combination was calculated and normalized to the MHC/GFP for respective MHC II allele-G9 peptide. On each assay date, MHC/GFP for each MHC II-peptide combination was measured for three or four wells and their average was determined. […]
# H2-E^d = test: MHC II cell-surface density assay, H2-E^d; assay type: cell-based, mouse; settings: NIH3T3 cells, flow cytometry 48 h after transduction; peptides adjusted to 12-mer with N-terminal glycines; MUT vs WT counterpart
# From the text: as §1, §2
# K^d = target: T1, K^d (Mus musculus, UniProt P01902); test: Measured peptide binding to K^d
# T1 sequence (P01902 22-368): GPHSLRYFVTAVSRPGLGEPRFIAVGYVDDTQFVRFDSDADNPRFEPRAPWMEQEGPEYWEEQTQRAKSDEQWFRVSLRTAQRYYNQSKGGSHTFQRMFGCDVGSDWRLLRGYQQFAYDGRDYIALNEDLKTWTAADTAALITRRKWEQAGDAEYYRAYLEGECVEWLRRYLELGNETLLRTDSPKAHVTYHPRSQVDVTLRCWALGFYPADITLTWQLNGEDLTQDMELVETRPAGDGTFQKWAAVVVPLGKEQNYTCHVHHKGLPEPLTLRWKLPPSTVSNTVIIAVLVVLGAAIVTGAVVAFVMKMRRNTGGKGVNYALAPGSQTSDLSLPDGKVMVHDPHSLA
# T1 sequence (P01887 21-119 partner): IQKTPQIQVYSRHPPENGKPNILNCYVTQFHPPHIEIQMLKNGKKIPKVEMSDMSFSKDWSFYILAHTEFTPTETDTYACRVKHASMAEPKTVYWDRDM
# Protocol: Each line represents tumor growth in a single mouse (n = 5 mice per group). AUC for each group is plotted in the panel on the right. Data are presented as mean ± SD. P values were calculated using 1-way ANOVA test adjusted for multiple comparisons (Tukey’s multiple comparison test). c Several truncated versions of the 18-mer Ccdc85c^MUT peptide were tested in tumor rejection assay. BALB/cJ mice were immunized and tumor challenged. Each line represents tumor growth in a single mouse. Although mice were immunized with individual peptides, the data for multiple peptides are grouped into one with the composition of the peptides shown on the right. The tumor rejection data for individual peptides are shown in Supplementary Fig. 1. Tumor rejection score (TRS) for each neoepitope is shown in the yellow box, where five represents a complete tumor protection and zero means no tumor rejection. d On the left panel, total Area Under the Curve (AUC) scores for each group in B are plotted. […] Error bars represent standard deviation (SD). The P values corresponding to the comparison of TRS = 0 with TRSs 5.0, 4.0–4.5 and 3.0–3.3 were respectively <0.0001, <0.0001 and 0.0002. P values were calculated using 1-way ANOVA test adjusted for multiple comparisons. On the right, peptides with the highest and the lowest TRS are shown. e Targeted MS-based detection of TYIRPFETKVK and YIRPFETKVK among MHC I peptides eluted from BMDCs pulsed with the 18-mer Ccdc85c^MUT. Heavy labeled synthetic peptides were spiked into the peptide samples; the labeled amino acid is marked with a bold character and the mutation is in red. Matched peak lists for the “heavy” and “light” ions were extracted and monitored, while only single charge y ions were plotted. See Methods for details. f Predicted (by NetMHC4.0) and measured IC50 values of the binding of candidate precise neoepitopes of Ccdc85c^MUT to K^d are shown. […] The affinities of the MS/TRS predicted neoepitopes were also measured for D^d and L^d; measured affinities were below the level of detection.
# D^d = test: Measured peptide binding to D^d; design: species or system mouse
# Protocol: (§3) Each line represents tumor growth in a single mouse (n = 5 mice per group). AUC for each group is plotted in the panel on the right. Data are presented as mean ± SD. P values were calculated using 1-way ANOVA test adjusted for multiple comparisons (Tukey’s multiple comparison test). c Several truncated versions of the 18-mer Ccdc85c^MUT peptide were tested in tumor rejection assay. BALB/cJ mice were immunized and tumor challenged. Each line represents tumor growth in a single mouse. Although mice were immunized with individual peptides, the data for multiple peptides are grouped into one with the composition of the peptides shown on the right. The tumor rejection data for individual peptides are shown in Supplementary Fig. 1. […] P values were calculated using 1-way ANOVA test adjusted for multiple comparisons. […] Matched peak lists for the “heavy” and “light” ions were extracted and monitored, while only single charge y ions were plotted. See Methods for details. f Predicted (by NetMHC4.0) and measured IC50 values of the binding of candidate precise neoepitopes of Ccdc85c^MUT to K^d are shown. […] The affinities of the MS/TRS predicted neoepitopes were also measured for D^d and L^d; measured affinities were below the level of detection.
# L^d = test: Measured peptide binding to L^d; design: species or system mouse
# Protocol: as §3
Sequence,CD8 response (interferon γ ELIspot) (splenic CD8 T cells),tumor rejection (in words) (Meth A),binding of Ccdc85c^MUT versus Ccdc85c^WT to H2-IA (MHC/GFP normalized to G9) (H2-A^d),binding of Ccdc85c^MUT versus Ccdc85c^WT to H2-IE (MHC/GFP normalized to G9) (H2-E^d),IC50 (K^d; assay kind not described) [nM],measured affinity for D^d (D^d),measured affinity for K^d (in words) (K^d),measured affinity for L^d (L^d)
"DPSSTYIRPLETKVKLLD [un-mutated peptide, un-mutated 18-mer peptide of Ccdc85c]",no CD8 response,failed to elicit protection,,,,,,
IRPFETKVK [truncated version of the 18-mer Ccdc85c^MUT peptide],,,No significant difference,No significant difference,,,,
TYIRPFETKV [TYIRPFETKV],,,,,247,,,
TYIRPFETKVK,,,No significant difference,No significant difference,,very low or undetectable,very low or undetectable,very low or undetectable
YIRPFETKVK,,,No significant difference,No significant difference,,very low or undetectable,very low or undetectable,very low or undetectable
